Experimental data as given in patent publication US20240294508A1, “RIP1 MODULATORS INCLUDING AZETIDINE CYCLIC UREAS, PREPARATIONS, AND USES THEREOF” (SIRONAX LTD., priority 2021, published 2024).

Tested on: HT-29 cells
Assay: HT29 cells 0FBS assay in vitro: TNF-α/SMAC mimetic/zVAD-FMK induced necroptosis, CellTiter-Glo cell viability (RIP1 inhibitory activity)
Assay type: cell-based
Details: Homo sapiens, FBS free medium, TNF-α (10 ng/ml) + SMAC mimetic (6 uM) + zVAD-FMK (10 μM), 20 hours, geometric mean EC50
Outline: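 HT-29 cells (5,000/well, overnight) switched to FBS-free McCOY's 5A with TNF-α (10 ng/ml), SMAC mimetic (6 uM) and zVAD-FMK (10 μM) to drive necroptosis, plus compound, for 20 hours at 37° C. Viability read by CellTiter-Glo luminescence; geometric mean EC50 from 10-point duplicate dose-response.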

SMILES	EC50
Cc1ncc(C2CC=NN2C(=O)N2CC(Oc3cc(-c4c(C)c(N)nn4C)ncc3F)C2)s1 (stereo not drawn) [Compound 107, (3-((2-(3-amino-1,4-dimethyl-1H-pyrazol-5-yl)-5-fluoropyridin-4-yl)oxy)azetidin-1-yl)(5-(2-methylthiazol-5-yl)-4,5-dihydro-1H-pyrazol-1-yl) methanone]	0.1 to 100 nM
Cc1ncc([C@@H]2CC=NN2C(=O)N2CC(Oc3cc(-c4c(C)cnn4C)ncc3F)C2)s1 [Compound 108, (S)-(3-((2-(1,4-dimethyl-1H-pyrazol-5-yl)-5-fluoropyridin-4-yl)oxy)azetidin-1-yl)(5-(2-methylthiazol-5-yl)-4,5-dihydro-1H-pyrazol-1-yl)methanone]	0.1 to 100 nM
Cc1ncc(C2CC=NN2C(=O)N2CC(Oc3nc(-c4c(C)cnn4C)ncc3F)C2)s1 (stereo not drawn) [Compound 109, (3-((2-(1,4-dimethyl-1H-pyrazol-5-yl)-5-fluoropyrimidin-4-yl)oxy)azetidin-1-yl)(5-(2-methylthiazol-5-yl)-4,5-dihydro-1H-pyrazol-1-yl)methanone]	0.1 to 100 nM
Cc1c(-c2cc(OC3CN(C(=O)N4N=CCC4c4cc(F)cc(F)c4F)C3)c(F)cn2)nn(C)c1C(N)=O (stereo not drawn) [Compound 110, 3-(5-fluoro-4-((1-(5-(2,3,5-trifluorophenyl)-4,5-dihydro-1H-pyrazole-1-carbonyl)azetidin-3-yl)oxy)pyridin-2-yl)-1,4-dimethyl-1H-pyrazole-5-carboxamide]	0.1 to 100 nM
Cc1c(-c2cc(OC3CN(C(=O)N4N=CC[C@H]4c4cccc(F)c4)C3)c(F)cn2)nn(C)c1C(N)=O [Compound 111, (S)-3-(5-fluoro-4-((1-(5-(3-fluorophenyl)-4,5-dihydro-1H-pyrazole-1-carbonyl)azetidin-3-yl)oxy)pyridin-2-yl)-1,4-dimethyl-1H-pyrazole-5-carb oxamide]	0.1 to 100 nM
Cc1nn(-c2cc(OC3CN(C(=O)N4N=CCC4c4cc(F)cc(F)c4F)C3)c(F)cn2)c(C)c1S(N)(=O)=O (stereo not drawn) [Compound 112, 1-(5-fluoro-4-((1-(5-(2,3,5-trifluorophenyl)-4,5-dihydro-1H-pyrazole-1-carbonyl)azetidin-3-yl)oxy)pyridin-2-yl)-3,5-dimethyl-1H-pyrazole-4-sulfonamide]	0.1 to 100 nM
Cc1nn(-c2cc(OC3CN(C(=O)N4N=CC[C@H]4c4ccccc4)C3)c(F)cn2)c(C)c1S(N)(=O)=O [Compound 113, (S)-1-(5-fluoro-4-((1-(5-phenyl-4,5-dihydro-1H-pyrazole-1-carbonyl)azetidin-3-yl)oxy)pyridin-2-yl)-3,5-dimethyl-1H-pyrazole-4-sulfonamide]	0.1 to 100 nM
Cc1nn(-c2cc(OC3CN(C(=O)N4N=CC[C@H]4c4cccc(F)c4)C3)c(F)cn2)c(C)c1S(N)(=O)=O [Compound 114, (S)-1-(5-fluoro-4-((1-(5-(3-fluorophenyl)-4,5-dihydro-1H-pyrazole-1-carbonyl)azetidin-3-yl)oxy)pyridin-2-yl)-3,5-dimethyl-1H-pyrazole-4-sulfonamide]	0.1 to 100 nM
Cc1c(N)nn(C)c1-c1cc(OC2CN(C(=O)N3N=CCC3c3cc(F)cc(F)c3F)C2)c(F)cn1 (stereo not drawn) [Compound 115, (3-((2-(3-amino-1,4-dimethyl-1H-pyrazol-5-yl)-5-fluoropyridin-4-yl)oxy)azetidin-1-yl)(5-(2,3,5-trifluorophenyl)-4,5-dihydro-1H-pyrazol-1-yl) methanone]	0.1 to 100 nM
Cc1cnn(C)c1-c1cc(OC2CN(C(=O)N3N=CCC3c3cc(F)cc(F)c3F)C2)c(F)cn1 (stereo not drawn) [Compound 116, (3-((2-(1,4-dimethyl-1H-pyrazol-5-yl)-5-fluoropyridin-4-yl)oxy)azetidin-1-yl)(5-(2,3,5-trifluorophenyl)-4,5-dihydro-1H-pyrazol-1-yl)methanone]	0.1 to 100 nM
Cc1nn(-c2cc(OC3CN(C(=O)N4N=CCC4c4cc(F)cc(Cl)c4)C3)c(F)cn2)c(C)c1C(N)=O (stereo not drawn) [Compound 117, 1-(4-((1-(5-(3-chloro-5-fluorophenyl)-4,5-dihydro-1H-pyrazole-1-carbonyl)azetidin-3-yl)oxy)-5-fluoropyridin-2-yl)-3,5-dimethyl-1H-pyrazole-4-carboxamide]	0.1 to 100 nM
Cc1cc(F)cc(C2CC=NN2C(=O)N2CC(Oc3cc(-n4nc(C)c(C(N)=O)c4C)ncc3F)C2)c1 (stereo not drawn) [Compound 118, 1-(5-fluoro-4-((1-(5-(3-fluoro-5-methylphenyl)-4,5-dihydro-1H-pyrazole-1-carbonyl)azetidin-3-yl)oxy)pyridin-2-yl)-3,5-dimethyl-1H-pyrazole-4-carboxamide]	0.1 to 100 nM
Cc1nc(C)c(C2CC=NN2C(=O)N2CC(Oc3cc(-c4c(C)cnn4C)ncc3F)C2)s1 (stereo not drawn) [Compound 119, (3-((2-(1,4-dimethyl-1H-pyrazol-5-yl)-5-fluoropyridin-4-yl)oxy)azetidin-1-yl)(5-(2,4-dimethylthiazol-5-yl)-4,5-dihydro-1H-pyrazol-1-yl)methanone]	100 to 1000 nM
Cc1nc([C@@H]2CC=NN2C(=O)N2CC(Oc3cc(-c4c(C)cnn4C)ncc3F)C2)cs1 [Compound 120, (S)-(3-((2-(1,4-dimethyl-1H-pyrazol-5-yl)-5-fluoropyridin-4-yl)oxy)azetidin-1-yl)(5-(2-methylthiazol-4-yl)-4,5-dihydro-1H-pyrazol-1-yl)methanone]	0.1 to 100 nM
Cc1nc([C@H]2CC=NN2C(=O)N2CC(Oc3cc(-c4c(C)cnn4C)ncc3F)C2)cs1 [Compound 121, (R)-(3-((2-(1,4-dimethyl-1H-pyrazol-5-yl)-5-fluoropyridin-4-yl)oxy)azetidin-1-yl)(5-(2-methylthiazol-4-yl)-4,5-dihydro-1H-pyrazol-1-yl)methanone]	1000 to 10000 nM
Cc1nc(C2CC=NN2C(=O)N2CC(Oc3nc(-c4c(C)cnn4C)c(F)cc3F)C2)cs1 (stereo not drawn) [Compound 122, (3-((6-(1,4-dimethyl-1H-pyrazol-5-yl)-3,5-difluoropyridin-2-yl)oxy)azetidin-1-yl)(5-(2-methylthiazol-4-yl)-4,5-dihydro-11H-pyrazol-1-yl)methanone]	0.1 to 100 nM
Cc1ncc(C2CC=NN2C(=O)N2CC(Oc3nc(-c4c(C)cnn4C)c(F)cc3F)C2)s1 (stereo not drawn) [Compound 123, (3-((6-(1,4-dimethyl-1H-pyrazol-5-yl)-3,5-difluoropyridin-2-yl)oxy)azetidin-1-yl)(5-(2-methylthiazol-5-yl)-4,5-dihydro-1H-pyrazol-1-yl)methanone]	0.1 to 100 nM
Cc1nn(-c2cc(OC3CN(C(=O)N4N=CC[C@H]4c4cc(F)cc(F)c4F)C3)c(F)cn2)c(C)c1S(N)(=O)=O [Compound 124, (S)-1-(5-fluoro-4-((1-(5-(2,3,5-trifluorophenyl)-4,5-dihydro-1H-pyrazole-1-carbonyl)azetidin-3-yl)oxy)pyridin-2-yl)-3,5-dimethyl-1H-pyrazole-4-sulfonamide]	0.1 to 100 nM
Cc1nn(-c2cc(OC3CN(C(=O)N4N=CC[C@@H]4c4cc(F)cc(F)c4F)C3)c(F)cn2)c(C)c1S(N)(=O)=O [Compound 125, (R)-1-(5-fluoro-4-((1-(5-(2,3,5-trifluorophenyl)-4,5-dihydro-1H-pyrazole-1-carbonyl)azetidin-3-yl)oxy)pyridin-2-yl)-3,5-dimethyl-1H-pyrazole-4-sulfonamide]	100 to 1000 nM
Cc1c(-c2cc(OC3CN(C(=O)N4N=CC[C@H]4c4cc(F)cc(F)c4F)C3)c(F)cn2)nn(C)c1C(N)=O [Compound 126, 3-(5-fluoro-4-((1-(5-(2,3,5-trifluorophenyl)-4,5-dihydro-1H-pyrazole-1-carbonyl)azetidin-3-yl)oxy)pyridin-2-yl)-1,4-dimethyl-1H-pyrazole-5-carboxamide]	0.1 to 100 nM
Cc1nc(C2CC=NN2C(=O)N2CC(Oc3cc(-c4c(C)cnn4C)ncc3Cl)C2)cs1 (stereo not drawn) [Compound 127, (3-((5-chloro-2-(1,4-dimethyl-1H-pyrazol-5-yl)pyridin-4-yl)oxy)azetidin-1-yl)(5-(2-methylthiazol-4-yl)-4,5-dihydro-1H-pyrazol-1-yl)methanone]	1000 to 10000 nM
Cc1nc(C2CC=NN2C(=O)N2CC(Oc3cc(-c4c(C)cnn4C)ncc3F)C2)c(C)s1 (stereo not drawn) [Compound 128, (3-((2-(1,4-dimethyl-1H-pyrazol-5-yl)-5-fluoropyridin-4-yl)oxy)azetidin-1-yl)(5-(2,5-dimethylthiazol-4-yl)-4,5-dihydro-1H-pyrazol-1-yl)methanone]	100 to 1000 nM
Cc1cnc(C2CC=NN2C(=O)N2CC(Oc3nc(-c4c(C)cnn4C)c(F)cc3F)C2)s1 (stereo not drawn) [Compound 129, (3-((6-(1,4-dimethyl-1H-pyrazol-5-yl)-3,5-difluoropyridin-2-yl)oxy)azetidin-1-yl)(5-(5-methylthiazol-2-yl)-4,5-dihydro-1H-pyrazol-1-yl)methanone]	0.1 to 100 nM
Cc1cc(F)cc(C2CC=NN2C(=O)N2CC(Oc3cc(-c4c(C)cnn4C)ncc3F)C2)c1 (stereo not drawn) [Compound 130, (3-((2-(1,4-dimethyl-1H-pyrazol-5-yl)-5-fluoropyridin-4-yl)oxy)azetidin-1-yl)(5-(3-fluoro-5-methylphenyl)-4,5-dihydro-1H-pyrazol-1-yl)methanone]	0.1 to 100 nM
Cc1nc(C2CC=NN2C(=O)N2CC(Oc3cc(-c4c(C)cnn4C)c(F)cc3F)C2)cs1 (stereo not drawn) [Compound 131, (3-(5-(1,4-dimethyl-1H-pyrazol-5-yl)-2,4-difluorophenoxy)azetidin-1-yl)(5-(2-methylthiazol-4-yl)-4,5-dihydro-1H-pyrazol-1-yl)methanone]	0.1 to 100 nM
Cc1nc(C2CC=NN2C(=O)N2CC(Oc3cc(-c4ccnn4C)c(F)cc3F)C2)cs1 (stereo not drawn) [Compound 132, (3-(2,4-difluoro-5-(1-methyl-1H-pyrazol-5-yl)phenoxy)azetidin-1-yl)(5-(2-methylthiazol-4-yl)-4,5-dihydro-1H-pyrazol-1-yl)methanone]	0.1 to 100 nM
Cc1nn(-c2cc(OC3CN(C(=O)N4N=CC[C@H]4c4cc(F)cc(Cl)c4)C3)c(F)cn2)c(C)c1C(N)=O [Compound 133, (S)-1-(4-((1-(5-(3-chloro-5-fluorophenyl)-4,5-dihydro-1H-pyrazole-1-carbonyl)azetidin-3-yl)oxy)-5-fluoropyridin-2-yl)-3,5-dimethyl-1H-pyrazole-4-carboxamide]	0.1 to 100 nM
